{
  "source": "ChEMBL document CHEMBL5518172",
  "about": "“Discovery of hydroxamate as a promising scaffold dually inhibiting metallo- and serine-β-lactamases” (Eur J Med Chem, 2024)",
  "key": {"[1]": {"tested_on": "Escherichia coli", "test": "Synergistic antibacterial activity against Escherichia coli BL21 (DE3) harboring serine beta lactamase KPC-2 assessed as decrease in bacterial colony at 128 microg/ml incubated for 12 hrs in presence of meropenem by imaging analysis", "type": "functional, organism-based", "details": "dose 128.0 µg/ml"}, "[2]": {"tested_on": "Escherichia coli", "test": "Synergistic antibacterial activity against Escherichia coli BL21 (DE3) harboring NDM-1 assessed as meropenem MIC at 64 microg/ml measured after 16 hrs by CLSI protocol based broth microdilution method (reference value: 256 microg/ml)", "type": "functional", "details": "dose 64 µg/ml"}, "[3]": {"tested_on": "Escherichia coli", "test": "Synergistic antibacterial activity against Escherichia coli BL21 (DE3) harboring serine beta lactamase KPC-2 assessed as meropenem MIC at 64 microg/ml measured after 16 hrs by CLSI protocol based broth microdilution method (reference value: 16 microg/ml)", "type": "functional", "details": "dose 64 µg/ml"}, "[4]": {"tested_on": "Escherichia coli", "test": "Synergistic antibacterial activity against Escherichia coli harboring serine beta-lactamase OXA-48 infected in Kunming mouse model assessed as reduction in bacterial load in liver at 20 mg/kg, ip co-administered with 1 mg/kg of meropenem", "type": "functional, organism-based"}, "[5]": {"test": "Inhibition of recombinant metallo-beta-lactamase IMP-1 (unknown origin) expressed in Escherichia coli BL21 (DE3) cells using meropenem as substrate by spectrometric analysis", "design": "species or system Bacteria"}, "[6]": {"target": "Metallo-beta-lactamase type 2 (Bacteria, UniProt C7C422)", "sequence (C7C422 whole entry)": "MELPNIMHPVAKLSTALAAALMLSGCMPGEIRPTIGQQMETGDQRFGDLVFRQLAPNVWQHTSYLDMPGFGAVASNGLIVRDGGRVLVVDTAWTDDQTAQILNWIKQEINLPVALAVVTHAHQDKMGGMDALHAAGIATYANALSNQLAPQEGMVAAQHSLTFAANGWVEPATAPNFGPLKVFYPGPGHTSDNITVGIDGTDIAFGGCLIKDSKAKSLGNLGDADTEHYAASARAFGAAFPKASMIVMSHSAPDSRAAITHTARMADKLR", "test": "Inhibition of recombinant NDM-1 (unknown origin) expressed in Escherichia coli BL21 (DE3) cells using meropenem as substrate by spectrometric analysis"}, "[7]": {"tested_on": "Bacteria", "test": "Inhibition of recombinant serine beta lactamase KPC-2 (unknown origin) expressed in Escherichia coli BL21 (DE3) cells using meropenem as substrate at 20 uM by spectrometric analysis relative to control"}, "[8]": {"test": "Inhibition of recombinant serine beta lactamase OXA-48 (unknown origin) expressed in Escherichia coli BL21 (DE3) cells using meropenem as substrate by spectrometric analysis", "design": "species or system Bacteria"}, "[9]": {"tested_on": "Escherichia coli", "test": "Synergistic antibacterial activity against Escherichia coli BL21 (DE3) harboring metallo-beta lactamase IMP-1 assessed as fold decrease in meropenem MIC at 64 microg/ml measured after 16 hrs by CLSI protocol based broth microdilution method", "type": "functional", "details": "dose 64 µg/ml"}, "[10]": {"tested_on": "Escherichia coli", "test": "Synergistic antibacterial activity against Escherichia coli BL21 (DE3) harboring NDM-1 assessed as fold decrease in meropenem MIC at 64 microg/ml measured after 16 hrs by CLSI protocol based broth microdilution method", "type": "functional", "details": "dose 64 µg/ml"}, "[11]": {"tested_on": "Escherichia coli", "test": "Synergistic antibacterial activity against Escherichia coli BL21 (DE3) harboring metallo-beta-lactamase IMP-1 assessed as decrease in bacterial colony at 128 microg/ml incubated for 12 hrs in presence of meropenem by imaging analysis", "type": "functional, organism-based", "details": "dose 128.0 µg/ml"}, "[12]": {"tested_on": "Bacteria", "test": "Inhibition of recombinant serine beta lactamase OXA-48 (unknown origin) expressed in Escherichia coli BL21 (DE3) cells using meropenem as substrate at 20 uM by spectrometric analysis relative to control"}, "[13]": {"test": "Cytotoxicity against mouse L929 cells assessed as cell viability upto 200 uM incubated for 48 hrs by CCK8 assay relative to control", "type": "toxicity, cell-based", "details": "read-out: Activity"}, "[14]": {"tested_on": "Escherichia coli", "test": "Synergistic antibacterial activity against Escherichia coli clinical isolate 10 assessed as decrease in bacterial colony at 128 microg/ml incubated for 12 hrs in presence of meropenem by imaging analysis", "type": "functional, organism-based", "details": "dose 128.0 µg/ml"}, "[15]": {"tested_on": "Escherichia coli", "test": "Synergistic antibacterial activity against Escherichia coli BL21 (DE3) harboring NDM-1 assessed as decrease in bacterial colony at 128 microg/ml incubated for 12 hrs in presence of meropenem by imaging analysis", "type": "functional, organism-based", "details": "dose 128.0 µg/ml"}, "[16]": {"tested_on": "Escherichia coli", "test": "Antibacterial activity against Escherichia coli harboring serine beta-lactamase OXA-48 infected in Kunming mouse model assessed as reduction in bacterial load in liver at 20 mg/kg, ip", "type": "functional, organism-based"}, "[17]": {"tested_on": "Escherichia coli", "test": "Synergistic antibacterial activity against Escherichia coli BL21 (DE3) harboring metallo-beta-lactamase IMP-1 assessed as meropenem MIC at 64 microg/ml measured after 16 hrs by CLSI protocol based broth microdilution method (reference value: 64 microg/ml)", "type": "functional", "details": "dose 64 µg/ml"}, "[18]": {"tested_on": "Escherichia coli", "test": "Antibacterial activity against Escherichia coli harboring serine beta-lactamase OXA-48 infected in Kunming mouse model assessed as reduction in bacterial load in spleen at 20 mg/kg, ip", "type": "functional, organism-based"}, "[19]": {"tested_on": "Escherichia coli", "test": "Synergistic antibacterial activity against Escherichia coli BL21 (DE3) harboring serine beta lactamase OXA-48 assessed as fold decrease in meropenem MIC at 64 microg/ml measured after 16 hrs by CLSI protocol based broth microdilution method", "type": "functional", "details": "dose 64 µg/ml"}, "[20]": {"tested_on": "Escherichia coli", "test": "Synergistic antibacterial activity against Escherichia coli BL21 (DE3) harboring serine beta lactamase OXA-48 assessed as meropenem MIC at 64 microg/ml measured after 16 hrs by CLSI protocol based broth microdilution method (reference value: 1 microg/ml)", "type": "functional", "details": "dose 64 µg/ml"}, "[21]": {"test": "Inhibition of recombinant serine beta lactamase KPC-2 (unknown origin) expressed in Escherichia coli BL21 (DE3) cells using meropenem as substrate by spectrometric analysis", "design": "species or system Bacteria"}, "[22]": {"tested_on": "Escherichia coli", "test": "Synergistic antibacterial activity against Escherichia coli BL21 (DE3) harboring serine beta lactamase OXA-48 assessed as decrease in bacterial colony at 128 microg/ml incubated for 12 hrs in presence of meropenem by imaging analysis", "type": "functional, organism-based", "details": "dose 128.0 µg/ml"}},
  "note": "Active and inactive are the calls of the source. The rule behind the calls is not given here.",
  "data": [
    {"smiles": "CC(C)COC(=O)ONC(=O)CCC1CCCCC1", "values": [
      {"measurement": "Activity", "setting": "[1]", "value": "Active"},
      {"measurement": "MIC", "setting": "[2]", "value": 64, "unit": "µg/mL"},
      {"measurement": "MIC", "setting": "[3]", "value": 16, "unit": "µg/mL"},
      {"measurement": "Activity", "setting": "[4]", "value": "Active"},
      {"measurement": "IC50", "setting": "[5]", "value": 4.49, "unit": "µM"},
      {"measurement": "IC50", "setting": "[6]", "value": 4.73, "unit": "µM"},
      {"measurement": "inhibition", "setting": "[7]", "value": "> 90", "unit": "%"},
      {"measurement": "IC50", "setting": "[8]", "value": 2.05, "unit": "µM"},
      {"measurement": "fold change (FC)", "setting": "[9]", "value": 2},
      {"measurement": "fold change (FC)", "setting": "[10]", "value": 2},
      {"measurement": "Activity", "setting": "[11]", "value": "Active"},
      {"measurement": "inhibition", "setting": "[12]", "value": "> 90", "unit": "%"},
      {"measurement": "viability at 48 h, up to 200 µM", "setting": "[13]", "value": "> 80", "unit": "%"},
      {"measurement": "Activity", "setting": "[14]", "value": "Active"},
      {"measurement": "Activity", "setting": "[15]", "value": "Active"},
      {"measurement": "Activity", "setting": "[16]", "value": "inactive"},
      {"measurement": "MIC", "setting": "[17]", "value": 32, "unit": "µg/mL"},
      {"measurement": "Activity", "setting": "[18]", "value": "inactive"},
      {"measurement": "fold change (FC)", "setting": "[19]", "value": 16},
      {"measurement": "MIC", "setting": "[20]", "value": 0.063, "unit": "µg/mL"},
      {"measurement": "IC50", "setting": "[21]", "value": 0.69, "unit": "µM"},
      {"measurement": "Activity", "setting": "[22]", "value": "Active"}
    ]}
  ]
}
